This is an account of results in publication PMC11943016, “TBG096 Ameliorates Memory Deficiency in AD Mouse Model via Promoting Neurogenesis and Regulation of Hsc70/HK2/PKM2/LAMP2A Signaling Pathway” (International Journal of Molecular Sciences, 2025).

The structures appear in SMILES notation.

One assay deals with BV-2 microglial cells. The experiment in a line: Anti-inflammatory activity in LPS-treated BV-2 cells (Iba1 fluorescence). The conditions noted are these: 24 h. It counts as cell-based. The protocol: BV-2 cells were obtained from Nanjing CoBioer Biotechnology Ltd., Co., Nanjing, China, and cultured in RPMI 1640 medium (Roswell Park Memorial Institute 1640 medium, Gibco, Grand Island, NY, USA) supplemented with 10% FBS and 1% penicillin/streptomycin. The anti-inflammatory activity of samples in BV-2 cells was determined as follows. Approximately 5 × 10^4 cells were seeded in each well of a 24-well microplate and were cultured under a humidified atmosphere with 5% CO2 at 37 °C for 24 h. Then, the medium was replaced by 500 µL RPMI 1640 medium containing 0.5% DMSO or samples at different concentrations for 2 h, and 500 µL medium containing LPS (1 µg/mL) was added and incubated for 24 h. Next, the medium of each well was sucked out, and each well was washed with phosphate-buffered saline (PBS) three times and fixed with 4% paraformaldehyde (500 µL/well) for 20 min at room temperature. The fixative was discarded, washed with PBS, and blocked for 60 min. […] After that, the cell nucleus was stained with diluted DAPI (SouthernBiotech, Birmingham, AL, USA) for 10 min, and the fluorescence image of BV-2 cells was observed under the fluorescence inverted microscope. Three regions were randomly selected to be observed and recorded with pictures. Image J software version 1.8.0 (National Institutes of Health, Bethesda, MD, USA) was finally used to analyze the fluorescence density of BV-2 cells.

For the next assay, the system named is HFD-induced AD mice. The experiment in a line: Neurogenesis: NeuN/BrdU double staining in HFD-induced AD mice. Format: in vivo. The note with it: 5 mg/kg, vs HFD-only. The method, then:
In order to investigate the effect of TBG096 on promoting neuronal regeneration, animal experiments were carried out according to the method previously reported. Fifteen 4-week-old ICR male mice purchased from Zhejiang Academy of Medical Sciences (Hangzhou, China) were randomly divided into three groups, namely the (i) normal control group, (ii) HFD group, and (iii) HFD + TBG096 5 mg/kg group, and given a normal diet or high-fat diet for two months to construct the AD mouse model, respectively. After confirming the successful construction of the AD model, TBG096 was administered once a day at a dose of 5 mg/kg for 1 month, and soybean oil was used as a vehicle. BrdU was then injected into the mice at a dose of 100 mg/kg in four injections over two days, each 12 h apart. Administration of TBG096 was continued for 28 days. At the end of animal experiments, the mice were anesthetized and cardiac […]. The brains of mice were taken, fixed, and sectioned, and immunostaining was performed with NeuN and BrdU antibodies.
At the end of animal experiments, three mice in each group were taken for heart perfusion with cold PBS and 4% paraformaldehyde. After that, the brains of mice were fixed with 4% paraformaldehyde for 24 h and gradually dehydrated with 15% and 30% sucrose solutions for 48 h, respectively. […]

The next assay deals with PC12 cells. The assay can be described thus: EdU cell proliferation in PC12 cells (inhibitor experiment). It counts as cell-based. The conditions noted are these: 24 h. The method, then: In the inhibitor experiment of EdU cell proliferation activity, PC12 cells were seeded into each well of a 24-well plate as above for 24 h. Then, the medium in each well was replaced with 500 μL of serum-free […] containing VER155008 (inhibitor of Hsc70, 3 µM), or NH4Cl (inhibitor of lysosome, 250 µM) for 30 min according to the literature, and 500 μL of serum-free DMEM containing different samples was added and cultured for 24 h, respectively. After that, PC12 cells were treated with EdU for 2 h according to the operation steps of the BeyoClick™ EdU-488 cell proliferation detection kit (#C0071S, Beyotime Biotechnology, Shanghai, China). After cell labeling, the supernatant was removed. Then, PC12 cells were fixed, washed, and blocked, and the click reaction solution was added at room temperature for 30 min. After that, DAPI staining was performed for 10 min. Finally, PC12 cells were detected by fluorescence microscope (Olympus IX53, Tokyo, Japan).

For a further assay, the system named is gut microbiota. The assay can be described thus: Gut microbiota analysis in HFD-induced AD mice. It counts as in vivo. The conditions noted are these: Met 140 mg/kg. From the text:
In experiments with the HFD-induced AD mouse model, a total of 60 Institute of Cancer Research (ICR) male mice aged 4 weeks from Zhejiang Academy of Medical Sciences (Hangzhou, China) were used for animal experiments (permit number: ZJU20230121). The animals were provided free access to a chow diet and water. […] The HFD and normal diet were alternated every two days to maintain freshness. Weekly measurements were taken for water intake, food intake, and body weight. In the eighteenth week, the mice underwent Y-maze and NOR tests. The Morris water maze test was conducted during the nineteenth week. After confirming the successful establishment of the AD model characterized by cognitive impairment, oral administration of treatments commenced. […] Each group had 10 mice.

In the case of `O=C(SCCCCCCSCCCC(F)(F)F)c1cccc(O)c1O` [TBG096], in the assay on BV-2 microglial cells, the “LPS-induced overactivation of BV-2 cells” value is recorded as “dose-dependently inhibited” and the “optimal concentration for inhibition of LPS-induced overactivation of BV-2 cells” value is on record as 0.3 µM. Besides, in the assay with HFD-induced AD mice, the “number of NeuN+ and BrdU+ neurons in the cerebral cortex” value is “increased numbers”; the “number of newborn neurons in the hippocampus” value was “elevated”. Also, the “EdU cell proliferation activity” value in the assay on PC12 cells is on record as “promoting PC12 cell proliferation”. The “abundance of Firmicutes (decreased by HFD) and Bacteroidota (increased by HFD)” value with gut microbiota (TBG096 20 mg/kg) was “reversed”. The “abundance of Ligilactobacillus” value in the assay on gut microbiota (TBG096 5 and 20 mg/kg) is recorded as “improved”.
